Here are results for two molecules from patent publication US20260345507A1, “COMPOSITIONS AND METHODS FOR DELIVERY OF RNA” (REJUVENATION TECHNOLOGIES, INC., priority 2022, published 2026).

Series [1] in a line: Pharmacokinetics of 5-lipid LNP (DOTAP by LC-MS/MS). The class given is in vivo, mouse. Details: Decay constant: unit not given here. Particulars: 1.0 mg mRNA/kg; for half-life: mouse, 1 mg/kg. The procedure:
Methods: LNPs were formulated using lipid molar ratios in Table 1 with mRNA encoding human telomerase. CD1 male mice were dosed at 1.0 mg mRNA/kg of body weight, and plasma and tissue were collected at time points 0 (<5 min) and 24 hours. DOTAP was measured using LC-MS/MS. mRNA was measured by qRT-PCR. “Liver Rest” is the liver sample excluding the left lobe.

In another series the test system is P21. Nature of the series: Senescence marker P21 in lung alveolar cells of bleomycin-treated mice. The class given is in vivo, mouse. Particulars: following bleomycin treatment. The procedure:
FIGS. 3-17 and FIGS. 20-21 depict experiments involving the use of a different 5 lipid LNP composition where lung fibrosis was induced in third generation (G3) TERT knock-out (KO) mice, which have telomere lengths that are similar to those of humans. Bleomycin was administered via oropharyngeal aspiration at 2.0 U/kg. For FIGS. 13-16, an initial dose of bleomycin was administered via oropharyngeal aspiration at 0.5 U/kg one week prior to the 2.0 U/kg dose. LNPs were formulated with firefly luciferase mRNA (Ctrl) or TERT mRNA (mouse SEQ ID NO: 2, including synthetic 5′ UTR (SEQ ID NO: 3), wt mTert coding sequence (SEQ ID NO: 4) and mouse alpha-globin 3′ UTR (SEQ ID NO: 5)) (referred to as “TERT mRNA LNP” herein or “TERT” or “TERT mRNA” in the figures) and the lipids in the ratios of Table 3. The DOTAP molar ratio is 2.27 times higher in the 5 lipid LNP of Table 3. Mice were dosed at 1.5 mg/kg twice a week for two weeks beginning on day 7 post bleomycin. Some mice received bleomycin, but not LNP treatment (No LNP), and control mice received saline instead of bleomycin and LNP treatment (No Bleo). Tissues were harvested on day 24 post bleomycin. Lungs were […]. […] Telomerase activity was measured in lung tissue lysate using the telomeric repeat amplification protocol (TRAP) assay. […]

[2] abbreviates: Liver Left Lobe, dosed as 5-lipid LNP of Table 1, CD1 male mice.
The mark [3] stands for this setting: Liver Rest (liver excluding left lobe), 5-lipid LNP of Table 1, CD1 male mice.
The mark [4] stands for this setting: Lung Right Lobes, 5-lipid LNP of Table 1, CD1 male mice.
Where [5] appears, read: Plasma, 5-lipid LNP of Table 1, CD1 male mice.
[6] abbreviates: Spleen, 5-lipid LNP of Table 1, CD1 male mice.

For orientation: half-life means the time in which the quantity being followed falls by half. In the case of `CCCCCCCC/C=C\CCCCCCCC(=O)OCC(C[N+](C)(C)C)OC(=O)CCCCCCC/C=C\CCCCCCCC` (stereo not drawn) [DOTAP, 1,2-dioleoyl-3-trimethylammonium-propane], the Decay constant turned out to be 0.066 in series [1] (setting [2]); 0.050 in series [1] (setting [3]); 0.094 in series [1] (Lung Left Lobe, 5-lipid LNP of Table 1, CD1 male mice); 0.073 in series [1] (setting [4]); 0.191 in series [1] (setting [5]); 0.136 in series [1] (setting [6]). Besides, the half-life in series [1] (setting [2]) is 10.5 h; in series [1] (setting [3]) it was 13.8 h; in series [1] (setting [4]) it was 9.51 h; in series [1] (setting [5]), 3.63 h; in series [1] (setting [6]), 5.09 h.

As to bleomycin, in the series with P21, the “senescence (P21)” value is given as “Increase in senescence”.
